Data: article PMC8326471, “Synthesis and biological evaluation of new pyrazolebenzene-sulphonamides as potential anticancer agents and hCA I and II inhibitors” (Turkish Journal of Chemistry, 2021)

How the values were obtained:
[1] = system: human oral squamous cell carcinoma cell lines (Ca9-22, HSC-2, HSC-3, HSC-4); assay: Cytotoxicity assay, all tumor cell lines (mean, TS1, PSE1); format: cell-based; conditions: mean of Ca9-22, HSC-2, HSC-3, HSC-4, read-out: Tumor cell lines CC50 mean (B)
Description: (§1) The cytotoxicity of the compounds 4a - 4j were assayed towards human tumor cell lines [gingival carcinoma (Ca9–22), oral squamous cell carcinoma (HSC-2)] and human normal oral cells [gingival fibroblasts (HGF), and periodontal ligament fibroblasts (HPLF)] as described [42, 54 – 56]. In brief, all cells were cultured in Dulbecco’s modified eagle’s medium (DMEM) supplemented with 10% fetal bovine serum (FBS). The following concentrations of the compounds in dimethylsulfoxide (DMSO) were added to the medium and incubated at 37 ° C for 48 h: 4a - 4j ([…]), melphalan (3.12, 6.25, 12.5, 25. 50, 100, 200 and […]) and 5-FU ([…]). The media that contained the same concentration of DMSO ([…], 0.03125, 0.0625, 0.125, 0.25, 0.5 or 1%) were used as controls since DMSO above 0.25% is cytotoxic. The viable cell numbers were determined by the 3-(4,5-dimethylthiazol-2-yl)-2,5-diphenyltetrazolium bromide (MTT) assay. The CC50 values were determined from dose-response curves.
(§2) Cytotoxicity’s of the compounds 4a - 4j were evaluated towards Ca9–22, HSC-2, HSC-3, and HSC-4 human oral squamous cell carcinoma cell lines as tumor cell lines and HGF, HPLF, and HPC human normal oral cells as nontumor cells (Table 1) according to the procedure in the literature [42, 54 – 56]. 5-Fluorouracil (5-FU) was used as a reference anticancer drug.
The tumor selectivity (TS1 and TS2) of each compound was calculated as described in previously reported literature procedures and these figures are presented in Table 1. Based on the TS1 values, 4f and 4g which have 2,5 and 2,4-dimethoxy substituents had the highest TS1 values in a series with 22.4 and 22.2, respectively. On the other hand, the 3,4,5-trimethoxy substituted compound 4i (TS1: 19.6) had the […] TS1 value. […] As expected, they were in accordance with the literature findings [16 – 18]. The second calculation (TS2) considered the differences of sensitivity between the malignant (Ca9–22) and non-malignant (HGF) cells derived from the same tissue (gingiva). According to TS2 values obtained, 4i (3,4,5-trimethoxy) had the highest TS2 value of 43.
The desired properties for a lead compound are being both markedly cytotoxic and selectively toxic for tumors. PSE1 reflects general cytotoxicity and selectivity potency of the compound towards all cells used, whereas PSE2 seems more specified since it was considered for the same origin cells. When the compounds tested towards OSCC lines were considered in terms of PSE2 values of the compounds. The best poly-methoxylated compounds were 4i (with 3,4,5-trimethoxy, PSE2 = 461.5) ˃ 4f (with 2,5-dimethoxy, PSE2 = 425.1) ˃ 4g (with 2,4-dimethoxy, PSE2 = 405.4) while the best mono-methoxylated derivative was 4b (with 4-methoxy, PSE2 = 205).

[2] = Cytotoxicity assay (MTT), HPLF normal cells; format: cell-based; conditions: human, HPLF periodontal ligament fibroblasts (normal oral cells), non-tumor cells
Description: as §1, §2

[3] = Cytotoxicity assay (MTT), HGF normal cells; format: cell-based; conditions: human, HGF gingival fibroblasts (normal oral cells), non-tumor cells
Description: as §1, §2

[4] = system: gingival carcinoma (Ca9-22) cells; assay: Cytotoxicity assay (MTT), Ca9-22; format: cell-based, human; conditions: for CC50: Homo sapiens, Ca9-22, tumor cell line, 48 h, MTT; for times of potency compared to 5-FU, Ca9-22: cytotoxicity relative to 5-FU; for PSE2 times more potent than 5-FU: PSE2 relative to reference drug 5-FU
Description: as §1, §2

[5] = system: HSC-3 oral squamous cell carcinoma cells; assay: Cytotoxicity assay (MTT), HSC-3; format: cell-based; conditions: Homo sapiens, tumor cell line, 48 h
Description: as §1, §2

[6] = system: HSC-4 oral squamous cell carcinoma cells; assay: Cytotoxicity assay (MTT), HSC-4; format: cell-based; conditions: Homo sapiens, tumor cell line, 48 h
Description: as §1, §2

hCA I = hCA I (Homo sapiens, UniProt P00915); assay: Carbonic anhydrase enzyme assay (esterase activity), hCA I; format: biochemical; conditions: for Ki: Lineweaver-Burk plot; for IC50: esterase activity, p-nitrophenyl acetate
Source text: (§3) Human CA isoforms (hCAI and hCAII) were purified by the sepharose - 4B – L - tyrosine sulfanilamide affinity segregation method as reported. […] Inhibitory effects of the compounds were investigated by measuring the esterase activity according to Verpoorte et al. as described in previous studies [61 – 63].
(§4) Vmax, maximal velocity; VImax, maximal velocity of inhibitor; I, inhibitor; Ki, the inhibitor constant.

[7] = Cytotoxicity assay (MTT), HPC normal cells; format: cell-based; conditions: human, HPC normal oral cells, non-tumor cells
Description: as §1, §2

[8] = Cytotoxicity assay, all non-tumor cells (mean); format: cell-based; conditions: human, normal oral cells HGF, HPLF and HPC (mean of the three), read-out: Non-tumor cell lines CC50 mean (D)
Description: as §1, §2

[9] = system: oral squamous cell carcinoma (HSC-2) cells; assay: Cytotoxicity assay (MTT), HSC-2; format: cell-based, human; conditions: for CC50: Homo sapiens, HSC-2, tumor cell line, 48 h, MTT; for times of potency compared to 5-FU, HSC-2: cytotoxicity relative to 5-FU
Description: as §1, §2

hCA II = hCA II (Homo sapiens, UniProt P00918); assay: Carbonic anhydrase enzyme assay (esterase activity), hCA II; format: biochemical; conditions: for Ki: Lineweaver-Burk plot; for IC50: esterase activity, p-nitrophenyl acetate
Source text: as §3, §4

Chain of hCA I (P00915 whole entry, canonical isoform): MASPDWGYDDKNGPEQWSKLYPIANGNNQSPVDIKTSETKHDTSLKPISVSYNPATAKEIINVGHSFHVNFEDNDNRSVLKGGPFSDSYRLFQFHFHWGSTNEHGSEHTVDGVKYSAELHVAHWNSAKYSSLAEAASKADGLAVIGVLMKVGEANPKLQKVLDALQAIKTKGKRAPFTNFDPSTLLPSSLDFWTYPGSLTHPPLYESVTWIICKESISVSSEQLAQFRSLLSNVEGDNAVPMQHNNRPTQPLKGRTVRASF

Row | SMILES | CC50 [1] [µM] | melting point [°C] | CC50 at 48 h [2] [µM] | CC50 at 48 h [3] [µM] | CC50 [4] [µM] | times of potency compared to 5-FU, Ca9-22 [4] | CC50 [5] [µM] | CC50 [6] [µM] | Ki (hCA I) [µM] | IC50 (hCA I) [µM] | CC50 at 48 h [7] [µM] | CC50 at 48 h [8] [µM] | CC50 [9] [µM] | times of potency compared to 5-FU, HSC-2 [9] | Ki (hCA II) [µM] | IC50 (hCA II) [µM] | PSE2 times more potent than 5-FU [4]
1 | NS(=O)(=O)c1ccc(N2N=C(c3ccccc3)CC2c2ccc3c(c2)OCO3)cc1 (stereo not drawn) [4a, 4-[5-(1,3-Benzodioxol-5-yl)-3-phenyl-4,5-dihydro-1H-pyrazol-1 yl]benzenesulphonamide] | 22.5 | 196 to 198 | 37.6 | 56.3 | 17.1 | 1.3 | 20.8 | 26.1 | 59.8 ± 3 | 30.1 | 63.2 | 52.4 | 26.1 | 10 | 8.9 ± 2.3 | 10.7 | –
2 | COc1ccc(C2=NN(c3ccc(S(N)(=O)=O)cc3)C(c3ccc4c(c3)OCO4)C2)cc1 (stereo not drawn) [4b, 4-[5-(1,3-Benzodioxol-5-yl)-3-(4-methoxyphenyl)-4,5-dihydro-1H-pyrazol-1-yl]benzenesulphonamide] | 16.6 | 171 to 173 | 400 | 400 | 14 | 1.6 | 16.2 | 18.2 | 31.9 ± 1.9 | 11.3 | 98.7 | 300 | 18 | 14.5 | 11.5 ± 4.6 | 16.3 | –
3 | COc1cccc(C2=NN(c3ccc(S(N)(=O)=O)cc3)C(c3ccc4c(c3)OCO4)C2)c1 (stereo not drawn) [4c, 4-[5-(1,3-Benzodioxol-5-yl)-3-(3-methoxyphenyl)-4,5-dihydro-1H-pyrazol-1-yl]benzenesulphonamide] | 17.4 | 184 to 186 | 178 | 38.2 | 19.5 | – | 13.9 | 18 | 21.5 ± 1.5 | 6.6 | 140 | 119 | 18.3 | 14.3 | 6.9 ± 1.5 | 9.2 | –
4 | COc1ccccc1C1=NN(c2ccc(S(N)(=O)=O)cc2)C(c2ccc3c(c2)OCO3)C1 (stereo not drawn) [4d, 4-[5-(1,3-Benzodioxol-5-yl)-3-(2-methoxyphenyl)-4,5-dihydro-1H-pyrazol-1-yl]benzenesulphonamide] | 14.6 | 183 to 185 | 39.7 | 36.9 | 13.8 | 1.6 | 12.4 | 14.9 | 28.5 ± 1.6 | 12.8 | 37 | 37.8 | 17.1 | 15.3 | 8.9 ± 1.9 | 10.7 | –
5 | COc1ccc(C2=NN(c3ccc(S(N)(=O)=O)cc3)C(c3ccc4c(c3)OCO4)C2)cc1OC (stereo not drawn) [4e, 4-[5-(1,3-Benzodioxol-5-yl)-3-(3,4-dimethoxyphenyl)-4,5-dihydro-1H-pyrazol-1-yl]benzenesulphonamide] | 227 | 243 to 245 | 400 | 400 | – | – | 61 | 400 | 25.5 ± 1.6 | 10.2 | 400 | 400 | 400 | – | 9.3 ± 0.6 | 15.2 | –
6 | COc1ccc(OC)c(C2=NN(c3ccc(S(N)(=O)=O)cc3)C(c3ccc4c(c3)OCO4)C2)c1 (stereo not drawn) [4f, 4-[5-(1,3-Benzodioxol-5-yl)-3-(2,5-dimethoxyphenyl)-4,5-dihydro-1H-pyrazol-1-yl]benzenesulphonamide] | 12.2 | 144 to 146 | 276 | 400 | 9.7 | 2.3 | 11.5 | 12 | 27.8 ± 10.1 | 14 | 147 | 274 | 15.7 | 16.6 | 12.3 ± 2.8 | 16.3 | 2.1
7 | COc1ccc(C2=NN(c3ccc(S(N)(=O)=O)cc3)C(c3ccc4c(c3)OCO4)C2)c(OC)c1 (stereo not drawn) [4g, 4-[5-(1,3-Benzodioxol-5-yl)-3-(2,4-dimethoxyphenyl)-4,5-dihydro-1H-pyrazol-1-yl]benzenesulphonamide] | 11.5 | 134 to 136 | 234 | 400 | 9.9 | 2.2 | 9.8 | 12.7 | 12.7 ± 1.7 | 6.7 | 131 | 255 | 13.5 | 19.3 | 7.8 ± 2.2 | 11.3 | 2.0
8 | COc1cc(OC)c(C2=NN(c3ccc(S(N)(=O)=O)cc3)C(c3ccc4c(c3)OCO4)C2)cc1OC (stereo not drawn) [4h, 4-[5-(1,3-Benzodioxol-5-yl)-3-(2,4,5-trimethoxyphenyl)-4,5-dihydro-1H-pyrazol-1-yl]benzenesulphonamide] | 211 | 191 to 193 | 400 | 400 | 400 | – | 21.3 | 21.8 | 49.6 ± 1.9 | 13.8 | 400 | 400 | 400 | – | 9.3 ± 1.6 | 14.3 | –
9 | COc1cc(C2=NN(c3ccc(S(N)(=O)=O)cc3)C(c3ccc4c(c3)OCO4)C2)cc(OC)c1OC (stereo not drawn) [4i, 4-[5-(1,3-Benzodioxol-5-yl)-3-(3,4,5-trimethoxyphenyl)-4,5-dihydro-1H-pyrazol-1-yl]benzenesulphonamide] | 14.6 | 212 to 214 | 83.7 | 400 | 9.3 | 2.4 | 11.3 | 6.7 | 52.5 ± 1.8 | 29.7 | 371 | 285 | 30.9 | 8.4 | 24.1 ± 7.1 | 12.5 | 2.2
10 | O=c1[nH]cc(F)c(=O)[nH]1 [5-FU, 5-Fluorouracil, reference compound] | 75.8 | – | 1000 | 1000 | 22 | – | 7.8 | 12.5 | – | – | 958 | 986 | 261 | – | – | – | –
